From patent US4223031A, “Azolopyrimidinones” (priority 1978, dated 1980)
Read-outs that look alike come from different tables or passages of the source.

Legend:
guinea pig trachea = assay: relaxation of the spontaneous tonus of the isolated guinea pig trachea (tracheal spiral) in vitro; settings: for relaxation of the spontaneous tonus of the guinea pig trachea in vitro: guinea pig trachea / tracheal spiral, result in words
Protocol: The new compounds of Formulas III and IV are also considered part of the present invention since they are useful as intermediates for the production of the substances of Formula I. Some of the substances of Formulas III and IV also have biological utility in addition to their utility as intermediates. […] It is 13.2 times as potent as theophylline in relaxing the spontaneous tonus of the isolated guinea pig tracheal spiral. […] In both instances, the drug was administered orally.

[1] = test system: passive cutaneous anaphylaxis reaction (PCA); assay: passive cutaneous anaphylaxis reaction (PCA) in the rat; assay type: in vivo; settings: for ED50 / PCA Response, percent inhibition at the dose specified: rat; for ED50: read-out: PCA Response, ED 50; for antiallergic activity: rat PCA, result in words
Protocol: Twelve days after injection, the serum is collected and the antibody titer is determined. The sera which contain sufficient antibody to cause a 10 mm. spot in the dorsal skin of the rat in the PCA test after a 10-fold dilution are pooled. […] The selected reaginic anti-sera are stored frozen until use. For carrying out the test, groups of 5 to 10 male Sprague-Dawley (Carworth Farms) rats, each rat weighing 100-150 g., are used. Forty-eight hours prior to the test, the animals are passively sensitized by intradermal injection of 0.1 ml. of the above diluted antiserum at various locations on the shaved skin of the back. A dilution of antiserum is used so that a spot following challenge of 20-25 mm. in diameter is obtained. Challenge consists of an intravenous injection of 25 mg./kg. of body weight of egg albumin and a like amount of Evan's blue dye in saline. […] A latent period of 48 hrs. is allowed before the animals are treated with the test drug administered by either intraperitoneal or intravenous injection or orally by gavage. Challenge as described above is given 15 min. subsequent to treatment with the test drug. The response to the antigen challenge in the sensitized localities on the skin is an increased capillary permeability and leakage of the blue dye into the area surrounding the sensitized site. The PCA response is scored by measuring the mean spot diameter on the excised and reversed skin 20-30 min. after challenge. In each experiment a group of control animals receiving no drug is employed. The percent inhibition of the PCA is calculated by determining the mean diameters of the spots in the control and treated animals and computing the difference between the squares of the mean diameters of the control animals and the treated animals and expressing this difference as a percentage of the square of the mean diameter of the control animals. Results are expressed as percent inhibition. […] In other modifications, various time intervals are allowed between drug treatment and challenge to ascertain the duration of drug effect.

in vivo = settings: po, rat, treated orally, read-out: approximate LD50

| Structure (SMILES) | relaxation of the spontaneous tonus of the guinea pig trachea in vitro (guinea pig trachea) | ED50 ([1]; po, p.o.) | further results |
| --- | --- | --- | --- |
| Cc1csc(NC=C(C#N)C#N)n1 [Example 5, 2-[[(4-methylthiazol-2-yl)amino]methylene]propanedinitrile] | substantial tracheal relaxant action |  | potency relative to theophylline in relaxing the spontaneous tonus of the isolated guinea pig tracheal spiral (guinea pig trachea; isolated guinea pig tracheal spiral): 13.2 times as potent as theophylline |
| N#CC(=CNc1nc2ccccc2s1)c1nnn[nH]1 [Example 14, N-[2-Cyano-2-(1H-tetrazol-5-yl)ethenyl]-benzothiazol-2-amine] |  | 32 mg/kg | antiallergic activity [1]: antiallergic activity similar to those substances of Formula I |
| N=c1c(-c2nnn[nH]2)cnc2[nH]cnn12 [Example 15, 3,7-Dihydro-6-(1H-tetrazol-5-yl)-s-triazolo-[1,5-a]pyrimidin-7-imine] | inactive |  | PCA Response, percent inhibition at the dose specified ([1]; 10 mg/kg, p.o.): 36.1% |
| Cc1csc(NC=C(C#N)c2nnn[nH]2)n1 [Example 17, 3-[(4-Methylthiazol-2-yl)amino]-2-(1H-tetrazol-5-yl)-2-propenenitrile] |  |  | antiallergic activity [1]: antiallergic activity similar to those substances of Formula I; PCA Response, percent inhibition at the dose specified ([1]; 25 mg/kg, p.o.): 36.7% |
| N=c1c(-c2nnn[nH]2)cnc2sccn12 [Example 22, 6-(1H-Tetrazol-5-yl)-5H-thiazole[3,2-a]-pyrimidine-5-imine] |  |  | PCA Response, percent inhibition at the dose specified ([1]; 10 mg/kg, p.o.): 22.4% |
| Cl.N=c1c(-c2nnn[nH]2)cnc2sc3ccccc3n12 [Example 23, 3-(1H-Tetrazol-5-yl)-4H-pyrimido[2,1-b]-benzothiazol-4-imine Hydrochloride] | cause relaxation | 2.9 mg/kg |  |
| O=c1c(-c2nnn[nH]2)cnc2sc3ccccc3n12 [Example 24, 3-(1H-Tetrazol-5-yl)-4H-pyrimido[2,1-b]-benzothiazol-4-one] | cause relaxation | 0.064 mg/kg | ED50 ([1]; iv, i.v.): 0.0049 mg/kg; LD50 (in vivo): 2000 to 5000 mg/kg |
| Cc1cc(C)c2sc3ncc(-c4nnn[nH]4)c(=O)n3c2c1 [Example 25, 7,9-Dimethyl-3-(1H-tetrazol-5-yl)-4H-pyrimido[2,1-b]benzothiazol-4-one] | cause relaxation |  |  |
| Cc1csc2ncc(-c3nnn[nH]3)c(=O)n12 [Example 28, 3-Methyl-6-(1H-tetrazol-5-yl)-5H thiazolo[3,2-a]pyrimidine-5-one] | cause relaxation |  | PCA Response, percent inhibition at the dose specified ([1]; 25 mg/kg, p.o.): 39% |
| COc1ccc2c(c1)sc1ncc(-c3nnn[nH]3)c(=O)n12 [Example 31, 8-Methoxy-3-(1H-tetrazol-5-yl)-4H-pyrimido-[2,1-b]benzothiazol-4-one] | cause relaxation | 1.88 mg/kg |  |
| Cc1cc2sc3ncc(-c4nnn[nH]4)c(=O)n3c2cc1C [Example 32, 7,8-Dimethyl-3-(1H-tetrazol-5-yl)-4H-pyrimido[2,1-b]benzothiazol-4-one] | cause relaxation |  | PCA Response, percent inhibition at the dose specified ([1]; 25 mg/kg, p.o.): 34.9% |
| O=c1c(-c2nnn[nH]2)cnc2sccn12 [Example 33, 6-(1H-Tetrazol-5-yl)-5H-thiazolo[3,2-a]-pyrimidin-5-one] |  |  | PCA Response, percent inhibition at the dose specified ([1]; 10 mg/kg, p.o.): 57% |
